Source: patent US20240166626A1, “Compounds and Methods for Preventing, Treating, or Ameliorating Airway Disease” (THOMAS JEFFERSON UNIVERSITY, priority 2021, published 2024)

How the values were obtained:
[1] = target: T1, GRK2 (Homo sapiens, UniProt P25098); assay: In vitro tubulin phosphorylation assay with purified GRK2; assay type: biochemical; conditions: 10 μM DFPQ, 60-minute time course, FIG. 3C
T1 sequence (P25098 1-689): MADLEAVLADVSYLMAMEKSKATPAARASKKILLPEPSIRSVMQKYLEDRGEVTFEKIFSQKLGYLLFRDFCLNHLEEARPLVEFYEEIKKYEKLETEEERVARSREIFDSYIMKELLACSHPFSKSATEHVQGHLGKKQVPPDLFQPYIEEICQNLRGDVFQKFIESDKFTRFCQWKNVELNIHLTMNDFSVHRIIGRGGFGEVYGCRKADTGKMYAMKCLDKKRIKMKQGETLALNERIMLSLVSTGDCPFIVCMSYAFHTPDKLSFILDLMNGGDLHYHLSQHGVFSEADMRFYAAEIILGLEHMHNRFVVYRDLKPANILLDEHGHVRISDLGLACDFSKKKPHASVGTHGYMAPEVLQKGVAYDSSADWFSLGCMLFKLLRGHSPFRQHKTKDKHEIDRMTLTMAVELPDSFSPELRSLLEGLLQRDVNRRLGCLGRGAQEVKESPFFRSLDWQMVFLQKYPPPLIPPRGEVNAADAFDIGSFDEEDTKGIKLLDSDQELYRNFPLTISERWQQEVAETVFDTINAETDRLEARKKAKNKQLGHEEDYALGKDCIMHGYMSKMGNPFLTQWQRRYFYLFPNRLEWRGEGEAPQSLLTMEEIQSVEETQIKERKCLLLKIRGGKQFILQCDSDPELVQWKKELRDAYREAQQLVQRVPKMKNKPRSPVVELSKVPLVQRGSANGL
Protocol: (§1) FIGS. 3A-3D: DFPQ inhibits GRK-mediated phosphorylation of the β2AR. FIG. 3A: Representative time course of agonist promoted phosphorylation of the β2AR. […] Cells were lysed and the FLAG-β2AR was immunoprecipitated. Phosphorylation at […] and 356 was analyzed by western blot using a pSer^355/356 antibody while total β2AR was measured using a β2AR C-terminal antibody. The western blot is representative of at least 3 experiments and is quantified in FIG. 3B. FIG. 3C: […] FIG. 3D: Bar graphs represent pixel densitometry of radiolabeled tubulin at the 60 min timepoint from 4 experiments. […]® ADRB2 cells (DiscoveRx) were maintained with the AssayCompleteTM Cell Culture kit (DiscoveRx catalog #92-[…]). […] Cells were read every three minutes for 18 minutes on a PolarStar Optima plate reader (BMG) to establish peak signal. […] Luminescence was determined at room temperature (23-25° C.) on a PolarStar Optima plate reader (BMG). […] Relative assay bias was calculated from the ratio of normalized cAMP and arrestin recruitment responses. […] BRET was measured using a Tecan Infinite F500 microplate reader. […] Bound [35 S]GTPγS was collected by rapid filtration on GF/B filters, washed 4 times with 4 ml of cold GTPγS wash buffer and analyzed by liquid scintillation counting. […] Immunoprecipitated proteins were separated by SDS-PAGE and analyzed by western blot using a β2AR C-terminal tail or phospho-specific antibody. […]

[2] = target: GRK5 (Homo sapiens, UniProt P34947); assay: In vitro tubulin phosphorylation assay with purified GRK5; assay type: biochemical; conditions: 10 μM DFPQ, FIG. 3C
Sequence of GRK5 (P34947 whole entry, species assumed): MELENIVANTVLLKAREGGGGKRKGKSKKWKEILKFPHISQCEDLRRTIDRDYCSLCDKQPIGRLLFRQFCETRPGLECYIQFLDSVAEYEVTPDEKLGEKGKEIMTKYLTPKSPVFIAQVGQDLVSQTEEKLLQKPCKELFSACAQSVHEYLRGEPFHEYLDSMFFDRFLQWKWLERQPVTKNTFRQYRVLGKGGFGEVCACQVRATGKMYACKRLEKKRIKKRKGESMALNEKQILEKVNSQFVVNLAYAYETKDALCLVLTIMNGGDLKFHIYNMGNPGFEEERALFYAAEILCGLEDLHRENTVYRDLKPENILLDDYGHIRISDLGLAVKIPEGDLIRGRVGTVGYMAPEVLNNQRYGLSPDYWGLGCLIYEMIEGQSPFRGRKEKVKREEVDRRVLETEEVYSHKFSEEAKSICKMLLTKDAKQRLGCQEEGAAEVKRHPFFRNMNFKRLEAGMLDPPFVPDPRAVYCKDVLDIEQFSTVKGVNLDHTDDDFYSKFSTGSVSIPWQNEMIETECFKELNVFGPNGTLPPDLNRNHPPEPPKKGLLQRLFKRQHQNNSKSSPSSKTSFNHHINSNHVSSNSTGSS
Protocol: as §1

- phosphorylation of tubulin by GRK2 [1]: unaffected
- phosphorylation of tubulin by GRK5 ([2]; 60-minute time course): unaffected
- GRK5 autophosphorylation [2]: lack of an effect
Structure (SMILES): Fc1ccc(Nc2nc(NC3CCCCC3)c3ccccc3n2)cc1F [DFPQ, N^4-cyclohexyl-N^2-(3,4-difluorophenyl)quinazoline-2,4-diamine]
